Calls of active or inactive are those of the source. The rule behind the calls is not given here.
Columns and labels:
Rattus norvegicus [1] = assay: Antiamnesic activity in Charles Foster albino rat assessed as reduction in scopolamine-induced increase in transfer latency at 10 mg/kg, po administered for 8 days measured 1 hr post last dose by elevated plus maze task (reference value: 62.50 +/- 0.76 s); format: functional
Rattus norvegicus [2] = assay: Acute toxicity in Charles Foster albino rat assessed as feeding behaviour up to 100 mg/kg, po after 48 hrs; format: organism-based; parameters: dose 100 mg/kg, route oral; conditions: in vivo
Cholinesterase [3] = target: T1, Cholinesterase (Homo sapiens, UniProt P06276); assay: Inhibition of human serum BChE using butyrylthiolcholine iodide as substrate incubated for 20 mins prior to substrate addition by Ellman's method
Rattus norvegicus [4] = assay: Acute toxicity in Charles Foster albino rat assessed as blood pressure up to 100 mg/kg, po after 48 hrs; format: organism-based; parameters: dose 100 mg/kg, route oral; conditions: in vivo
Rattus norvegicus [5] = assay: Acute toxicity in Charles Foster albino rat assessed as tremors up to 100 mg/kg, po after 48 hrs; format: organism-based; parameters: dose 100 mg/kg, route oral; conditions: in vivo
Rattus norvegicus [6] = assay: Acute toxicity in Charles Foster albino rat assessed as heart rate up to 100 mg/kg, po after 48 hrs; format: organism-based; parameters: dose 100 mg/kg, route oral; conditions: in vivo
Rattus norvegicus [7] = assay: In vivo inhibition of AChE-mediated substrate hydrolysis in Charles Foster albino rat prefrontal cortex at 5 to 10 mg/kg, po administered for 8 days measured 1 hr post last dose; format: functional, organism-based
Rattus norvegicus [8] = assay: Acute toxicity in Charles Foster albino rat assessed as pulse rate up to 100 mg/kg, po after 48 hrs; format: organism-based; parameters: dose 100 mg/kg, route oral; conditions: in vivo
Rattus norvegicus [9] = assay: Acute toxicity in Charles Foster albino rat assessed as convulsions up to 100 mg/kg, po after 48 hrs; format: organism-based; parameters: dose 100 mg/kg, route oral; conditions: in vivo
Rattus norvegicus [10] = assay: Acute toxicity in Charles Foster albino rat assessed as mortality up to 100 mg/kg, po after 48 hrs; format: organism-based; parameters: dose 100 mg/kg, route oral; conditions: in vivo
Rattus norvegicus [11] = assay: Acute toxicity in Charles Foster albino rat assessed as salivation up to 100 mg/kg, po after 48 hrs; format: organism-based; parameters: dose 100 mg/kg, route oral; conditions: in vivo
Acetylcholinesterase [12] = target: T2, Acetylcholinesterase (Electrophorus electricus, UniProt O42275); assay: Inhibition of electric eel AChE using […] as substrate incubated for 20 mins prior to substrate addition by Ellman method
Rattus norvegicus [13] = assay: Acute toxicity in Charles Foster albino rat assessed as diarrhoea up to 100 mg/kg, po after 48 hrs; format: organism-based; parameters: dose 100 mg/kg, route oral; conditions: in vivo
Rattus norvegicus [14] = assay: Antiamnesic activity in Charles Foster albino rat assessed as reduction in scopolamine-induced increase in transfer latency at 5 mg/kg, po administered for 7 days measured 1 hr post last dose by elevated plus maze task (reference value: 67.67 +/- 0.88 s); format: functional
Rattus norvegicus [15] = assay: Antiamnesic activity in Charles Foster albino rat assessed as reduction in scopolamine-induced increase in transfer latency at 5 mg/kg, po administered for 8 days measured 1 hr post last dose by elevated plus maze task (reference value: 62.50 +/- 0.76 s); format: functional
[16] = Selectivity ratio of IC50 for human serum BChE to IC50 for electric eel AChE
Rattus norvegicus [17] = assay: Acute toxicity in Charles Foster albino rat assessed as sleep up to 100 mg/kg, po after 48 hrs; format: organism-based; parameters: dose 100 mg/kg, route oral; conditions: in vivo
Rattus norvegicus [18] = assay: Antiamnesic activity in Charles Foster albino rat assessed as reduction in scopolamine-induced increase in transfer latency at 10 mg/kg, po administered for 7 days measured 1 hr post last dose by elevated plus maze task (reference value: 67.67 +/- 0.88 s); format: functional
Rattus norvegicus [19] = assay: Antiamnesic activity in po dosed Charles Foster albino rat assessed as reduction in scopolamine-induced increase in transfer latency after 7 to 8 days by elevated plus maze task; format: functional, organism-based
Rattus norvegicus [20] = assay: In vivo inhibition of AChE-mediated substrate hydrolysis in Charles Foster albino rat hippocampus at 5 to 10 mg/kg, po administered for 8 days measured 1 hr post last dose; format: functional, organism-based; parameters: dose 5 to 10 mg/kg, route oral
Rattus norvegicus [21] = assay: In vivo inhibition of AChE-mediated substrate hydrolysis in Charles Foster albino rat hypothalamus at 5 to 10 mg/kg, po administered for 8 days measured 1 hr post last dose; format: functional, organism-based; parameters: dose 5 to 10 mg/kg, route oral
Rattus norvegicus [22] = assay: Acute toxicity in Charles Foster albino rat assessed as lacrimation up to 100 mg/kg, po after 48 hrs; format: organism-based; parameters: dose 100 mg/kg, route oral; conditions: in vivo
Acetylcholinesterase [23] = target: T2, Acetylcholinesterase; assay: Non-competitive inhibition of electric eel AChE using […] as substrate by Lineweaver-Burk plot analysis
Cholinesterase [24] = target: T1, Cholinesterase; assay: Competitive inhibition of human serum BChE using butyrylthiolcholine iodide as substrate by Lineweaver-Burk plot analysis

T1 sequence (P06276 whole entry): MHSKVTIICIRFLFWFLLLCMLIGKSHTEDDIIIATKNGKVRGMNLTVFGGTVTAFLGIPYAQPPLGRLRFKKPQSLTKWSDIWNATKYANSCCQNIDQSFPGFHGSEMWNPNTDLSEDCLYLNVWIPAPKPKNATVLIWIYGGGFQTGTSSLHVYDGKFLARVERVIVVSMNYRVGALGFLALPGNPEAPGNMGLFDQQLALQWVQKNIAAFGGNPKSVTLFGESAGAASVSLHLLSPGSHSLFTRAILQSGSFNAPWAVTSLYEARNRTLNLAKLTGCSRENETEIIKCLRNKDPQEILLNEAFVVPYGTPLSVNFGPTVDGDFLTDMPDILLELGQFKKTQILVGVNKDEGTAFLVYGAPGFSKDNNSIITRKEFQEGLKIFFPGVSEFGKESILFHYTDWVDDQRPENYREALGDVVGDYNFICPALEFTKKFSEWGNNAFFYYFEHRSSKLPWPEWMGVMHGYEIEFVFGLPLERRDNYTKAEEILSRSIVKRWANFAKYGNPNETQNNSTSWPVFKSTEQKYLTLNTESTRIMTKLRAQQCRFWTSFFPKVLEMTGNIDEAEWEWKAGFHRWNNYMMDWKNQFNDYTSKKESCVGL
T2 sequence (O42275 whole entry): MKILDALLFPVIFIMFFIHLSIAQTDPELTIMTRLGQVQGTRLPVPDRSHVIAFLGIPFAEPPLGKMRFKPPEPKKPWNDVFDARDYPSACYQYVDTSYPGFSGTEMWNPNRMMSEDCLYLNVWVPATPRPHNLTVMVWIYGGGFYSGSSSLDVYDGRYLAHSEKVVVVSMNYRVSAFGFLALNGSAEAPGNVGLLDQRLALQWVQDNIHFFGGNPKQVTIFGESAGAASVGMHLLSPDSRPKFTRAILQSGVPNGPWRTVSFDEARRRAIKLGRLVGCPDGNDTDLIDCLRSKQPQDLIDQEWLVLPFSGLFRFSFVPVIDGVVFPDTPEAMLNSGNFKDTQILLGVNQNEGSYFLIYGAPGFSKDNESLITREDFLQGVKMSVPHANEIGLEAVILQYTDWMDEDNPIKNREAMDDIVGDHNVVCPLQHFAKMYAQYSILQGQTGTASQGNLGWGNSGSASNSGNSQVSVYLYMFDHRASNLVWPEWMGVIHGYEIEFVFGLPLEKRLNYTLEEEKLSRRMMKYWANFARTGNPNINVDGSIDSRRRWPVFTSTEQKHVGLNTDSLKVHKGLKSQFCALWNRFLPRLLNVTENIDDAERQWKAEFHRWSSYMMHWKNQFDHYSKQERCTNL

Structure (SMILES)	Time (Rattus norvegicus [1]) [s]	Activity (Rattus norvegicus [2])	IC50 (Cholinesterase [3]) [µM]	Activity (Rattus norvegicus [4])	Activity (Rattus norvegicus [5])	Activity (Rattus norvegicus [6])	inhibition (Rattus norvegicus [7])	Activity (Rattus norvegicus [8])	Activity (Rattus norvegicus [9])	Activity (Rattus norvegicus [10])	Activity (Rattus norvegicus [11])	IC50 (Acetylcholinesterase [12]) [µM]	Activity (Rattus norvegicus [13])	Time (Rattus norvegicus [14]) [s]	Time (Rattus norvegicus [15]) [s]	Ratio IC50 [16]	Activity (Rattus norvegicus [17])	Time (Rattus norvegicus [18]) [s]	Activity (Rattus norvegicus [19])	inhibition (Rattus norvegicus [20])	further results
O=C(O)/C=C\C(=O)Nc1ccncc1	72.5	Non-toxic	657	Non-toxic	Non-toxic	Non-toxic	Active	Non-toxic	Non-toxic	Non-toxic	Non-toxic	48.7	Non-toxic	80.5	75.33	13.5	Non-toxic	77.67	Dose-dependent effect	Active	inhibition (Rattus norvegicus [21]): Active; Activity (Rattus norvegicus [22]): Non-toxic
O=C1C=CC(=O)N1c1ccncc1	53.83	Non-toxic	11	Non-toxic	Non-toxic	Non-toxic	Active	Non-toxic	Non-toxic	Non-toxic	Non-toxic	0.03	Non-toxic	64.67	56.33	367	Non-toxic	61.33	Dose-dependent effect	Active	Ki (Acetylcholinesterase [23]): 0.042 µM; Ki (Cholinesterase [24]): 15.6 µM; inhibition (Rattus norvegicus [21]): Active; Activity (Rattus norvegicus [22]): Non-toxic
O=C1CCC(=O)N1c1ccncc1	58.33	Non-toxic	3.82	Non-toxic	Non-toxic	Non-toxic	Active	Non-toxic	Non-toxic	Non-toxic	Non-toxic	0.49	Non-toxic	66.83	60.67	7.79	Non-toxic	65.5	Dose-dependent effect	Active	inhibition (Rattus norvegicus [21]): Active; Activity (Rattus norvegicus [22]): Non-toxic
O=C(O)CCC(=O)Nc1ccncc1	70	Non-toxic	56.5	Non-toxic	Non-toxic	Non-toxic	Active	Non-toxic	Non-toxic	Non-toxic	Non-toxic	40.3	Non-toxic	77.67	71.67	1.39	Non-toxic	74.83	Dose-dependent effect	Active	inhibition (Rattus norvegicus [21]): Active; Activity (Rattus norvegicus [22]): Non-toxic

From ChEMBL document CHEMBL2384962, “Design, synthesis and evaluation of some new 4-aminopyridine derivatives in learning and memory” (Bioorg Med Chem Lett, 2013)
